# Source: US20060029544A1, “Receptor-binding cyclic peptides and methods of use” (The Regents of the University of California Office of …, priority 2004, published 2006)
# Key:
# αvβ5 integrin = target: T1, αvβ5 integrin (Homo sapiens, UniProt P06756+P18084); test: ELISA: biotinylated vitronectin binding to captured soluble αvβ5-mFc in the presence of RGD peptides; conditions: 20 μM peptide; 100% = signal without peptide
# T1 construct: chimeras comprising the extracellular domain of αvβ3, αvβ5, α5β1, and αIIbβ3 linked to the Fc domain of either mouse IgG; purchased Celltech plc (supplied, no catalogue number); host or cells: unpurified hybridoma / tissue culture supernatant from secreting cells
# T1 sequence (P06756 31-992 limits assumed): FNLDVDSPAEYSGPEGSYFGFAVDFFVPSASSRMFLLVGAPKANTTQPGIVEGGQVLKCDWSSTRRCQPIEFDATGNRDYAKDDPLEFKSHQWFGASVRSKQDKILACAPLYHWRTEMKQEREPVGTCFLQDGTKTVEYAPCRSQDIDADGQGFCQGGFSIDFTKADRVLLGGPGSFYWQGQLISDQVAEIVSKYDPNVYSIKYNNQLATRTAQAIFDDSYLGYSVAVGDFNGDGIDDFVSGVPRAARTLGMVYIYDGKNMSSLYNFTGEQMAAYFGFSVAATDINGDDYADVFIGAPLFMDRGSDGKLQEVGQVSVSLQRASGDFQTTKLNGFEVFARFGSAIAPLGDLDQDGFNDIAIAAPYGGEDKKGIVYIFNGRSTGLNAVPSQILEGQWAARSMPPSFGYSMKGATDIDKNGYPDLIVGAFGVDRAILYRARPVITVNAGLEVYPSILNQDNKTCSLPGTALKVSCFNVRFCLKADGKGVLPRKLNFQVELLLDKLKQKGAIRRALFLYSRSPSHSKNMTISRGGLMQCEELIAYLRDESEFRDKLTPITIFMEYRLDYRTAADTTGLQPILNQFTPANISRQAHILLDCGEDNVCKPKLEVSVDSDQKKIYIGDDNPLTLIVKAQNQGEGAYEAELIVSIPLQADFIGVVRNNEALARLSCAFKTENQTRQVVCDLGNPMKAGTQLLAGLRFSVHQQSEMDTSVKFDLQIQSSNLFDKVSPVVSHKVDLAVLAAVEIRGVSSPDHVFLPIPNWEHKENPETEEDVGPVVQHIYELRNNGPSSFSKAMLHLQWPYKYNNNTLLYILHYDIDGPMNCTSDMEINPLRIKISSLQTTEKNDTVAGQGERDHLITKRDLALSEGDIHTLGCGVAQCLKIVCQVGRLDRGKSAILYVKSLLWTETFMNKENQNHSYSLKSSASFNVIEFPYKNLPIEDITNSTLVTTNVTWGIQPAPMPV
# T1 sequence (P18084 24-719 limits assumed): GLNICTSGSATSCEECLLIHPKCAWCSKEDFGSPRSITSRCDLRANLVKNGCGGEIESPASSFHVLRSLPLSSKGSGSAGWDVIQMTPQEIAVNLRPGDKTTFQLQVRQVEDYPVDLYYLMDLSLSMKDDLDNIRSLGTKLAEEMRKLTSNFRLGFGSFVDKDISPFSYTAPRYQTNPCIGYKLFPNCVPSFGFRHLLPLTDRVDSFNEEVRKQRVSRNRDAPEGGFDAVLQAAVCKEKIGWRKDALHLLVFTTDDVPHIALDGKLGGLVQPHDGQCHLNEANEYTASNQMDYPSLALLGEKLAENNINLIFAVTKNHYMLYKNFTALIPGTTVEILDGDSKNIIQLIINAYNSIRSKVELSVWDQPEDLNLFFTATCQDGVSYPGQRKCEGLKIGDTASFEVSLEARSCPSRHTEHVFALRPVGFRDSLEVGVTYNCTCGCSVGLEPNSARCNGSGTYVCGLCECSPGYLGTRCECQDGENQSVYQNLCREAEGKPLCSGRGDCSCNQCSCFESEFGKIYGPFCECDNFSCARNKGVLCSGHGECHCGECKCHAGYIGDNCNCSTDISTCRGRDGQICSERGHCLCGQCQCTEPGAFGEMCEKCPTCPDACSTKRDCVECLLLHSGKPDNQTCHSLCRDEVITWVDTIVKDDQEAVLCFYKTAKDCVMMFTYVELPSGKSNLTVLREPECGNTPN
# Excerpt: Four different soluble integrins were supplied by Celltech plc. Soluble forms of αvβ3, αvβ5, α5β1, and αIIbβ3 integrin were generated by constructing chimeras comprising the extracellular domain of αvβ3, αvβ5, α5β1, and αIIbβ3 linked to the Fc domain of either mouse IgG (αvβ3-mFc, αvβ5-mFc, and αIIbβ3-mFc) or human IgG (α5β1-hFc) as described by Stephens et al., Cell Adhes. Commun., 7:377-390 (2000) and Coe et al., J. Biol. Chem., 276:35854-35866 (2001). Since the four soluble integrin chimeras were supplied either as purified proteins (αvβ3-mFc and α5β1-hFc) or as unpurified hybridoma supernatants (αIIbβ3-mFc and αvβ5-mFc), it was necessary to use two types of ELISAs. […] In one type of ELISA (FIGS. 2A and 2B), the immobilized component is a 50 kDa fragment of fibronectin. In the second type of ELISA (FIGS. 2C and 2D), the immobilized component is a goat anti-mFc antibody that is used to capture chimeric proteins so that the RGD binding site of the integrin is maximally exposed. Each three-sided box in FIG. 2 represents a single well of a 96-well plate, and the components are listed in the sequence of their addition to the assay. The immobilized component at the bottom of the well is bound to the well by electrostatic interactions.
# To analyze the affinity and selectively of RGD peptides for αIIbβ3 and αvβ5, 96-well ELISA plates were coated with anti-murine Fc antibody at 5 μg/ml in PBS, 100 μl per well and left overnight at 4° C. The plates were washed with PBS using a Denley Wellwash 4 Mk 2. Washing was repeated twice with a 400 μl wash per well. 200 μl/well of blocking buffer was then added for 1 hour followed by a repeat washing with PBS. 100 μl of tissue culture supernatant from cells secreting soluble αIIbβ3-mFc or αvβ5-mFc, diluted 1:2 in conjugate buffer, was added to each well. Plates were incubated with shaking for 1 hour followed by two washes with PBS. 100 μl of an RGD peptide (at concentrations of 200, 20, and 2 μM), followed by either 100 μl of biotinylated fibrinogen (at 1 μg/ml in conjugate buffer) or 100 μl of biotinylated vitronectin (at 2 μg/ml in conjugate buffer) were added to each well and incubated for 2 hours with shaking. After incubation, the plates were washed with PBS as described above. 100 μl of neutravidin-peroxidase was added to each well and the plates were incubated for 30 minutes with shaking, followed by two washes with PBS. 100 μl of TMB substrate was added to each well and the plates were shaken during color development. Plates were read using a plate spectrophotometer at 630 nm.
# Two negative and two positive controls were used in both types of ELISAs. For example, the negative controls were wells that contained 50 μl of an active control peptide, integrin, and biotinylated ligand or 50 μl of the active control peptide and 50 μl of buffer. These negative control wells typically develop little to no color. […] These wells typically develop the maximum amount of color.
# FIGS. 3-6 illustrate the percent binding of the vitronectin, fibronectin, or fibrinogen ligand to αvβ5, α5β1, αIIbβ3, or αvβ3 integrin in the presence of RGD peptides (i.e., linear (A), cyclic (B), or 4-[^19F]-fluorobenzoyl cyclic (C)) at different concentrations, with 100% maximum signal being the signal obtained in the absence of the peptide.
# VUP melanoma cell line [1] = test: Adhesion assay: [51Cr]-VUP cells to vitronectin; assay type: cell-based; conditions: 20 μM peptide
# Protocol: (§1) RGD peptides were plated at a maximum concentration of 200 μM and a minimum concentration of 2 nM. For each RGD peptide sequence, linear peptides (A), cyclic peptides (B), and 4-[^19F]-fluorobenzoyl cyclic peptides (C) were assayed. Each RGD peptide concentration was performed in quadruplicate and each experiment was repeated twice.
# (§2) Plastic 96-well plates (Falcon 3912; Becton Dickinson) were coated with 50 μl substrate (10 μg/ml laminin or 5 μg/ml vitronectin). The plates were incubated at 37° C. in an 8% CO2 atmosphere for 1 hour. Unbound protein was flicked off and the plates were washed with phosphate buffered saline (PBS) and blocked with bovine serum albumin (0.1% w/v BSA)/PBS/0.1% sodium azide) for 1 hour. The plates were then washed with PBS, placed on a bed of ice and 25 μl of peptide was added to the wells.
# (§3) Sodium [^51Cr] chromate was purchased from Amersham International, UK. […]
# (§4) 25 μl (about 10,000 cells) were added to each quadruplicate well and the plates incubated at 37° C. in an 8% CO2 atmosphere for 1 hour. […] The radioactivity associated with each well was determined in a gamma counter (1261 Multigamma; Wallac, Sweden). Quadruplicate 25 μl samples of labeled cells were counted as 100% input values. To determine non-specific binding, the ability of cells to bind BSA-coated wells was also assessed. […]
# (§5) The results were calculated as follows: [formula] […]
# A375M melanoma cell line [2] = test: Adhesion assay: [51Cr]-A375M cells to laminin; assay type: cell-based, human; conditions: 200 μM peptide
# Protocol: as §1, §2
# (§6) Sodium [^51Cr] chromate was purchased from Amersham International, UK. The solution was made isotonic by the addition of 110 μl 10× Hanks buffered salt solution. 100 μl of this solution (3.7 MBq) was added to 5-10×10^6 cells in 500 μl of serum-containing growth medium. The suspension was incubated at 37° C. for 45 minutes with regular agitation to resuspend the cells. The cells were then washed and spun 3 times with serum-free E4 medium to remove any free [^51Cr]chromium. A trypan blue viability count was performed and the cells were diluted to the necessary volume in serum-free E4 medium (4×10^5 cells/ml).
# (§7) 25 μl (about 10,000 cells) were added to each quadruplicate well and the plates incubated at 37° C. in an 8% CO2 atmosphere for 1 hour. Unbound cells were flicked off and the plates were washed twice with PBS/BSA containing 1 mM CaCl2 and 0.5 mM MgCl2. The plates were dabbed dry and cut into individual wells. The radioactivity associated with each well was determined in a gamma counter (1261 Multigamma; Wallac, Sweden). Quadruplicate 25 μl samples of labeled cells were counted as 100% input values. To determine non-specific binding, the ability of cells to bind BSA-coated wells was also assessed. Data for these wells are referred to as background.
# The results were calculated as follows: [formula] [formula] NMR Spectroscopy of RGD Peptides
# The A375M and VUP melanoma cell lines were used with vitronectin and laminin as substrates. Peptides were titrated in 10-fold dilutions from 200 μM to 2 nM. All data were normalized to the absence of peptide, which corresponded to 100% adhesion. All titrations were performed in quadruplicate and each experiment was repeated at least twice.
# VUP melanoma cell line [3] = test: Adhesion assay: [51Cr]-VUP cells to laminin; assay type: cell-based; conditions: highest concentration (200 μM)
# Protocol: as §1, §2, §6
# as §7, with “Data for these wells are referred to as background.” left out
# as §5
# A375M melanoma cell line [4] = test: Adhesion assay: [51Cr]-A375M cells to vitronectin; assay type: cell-based, human; conditions: 20 μM peptide
# Protocol: as §1, §2, §3, §4, §5
substance,measurement,setting,value
RGDY(OMe)K [B7],"vitronectin binding to αvβ5, % of the maximum signal",αvβ5 integrin,32.8%
same,"adhesion of [51Cr]-VUP cells to vitronectin, normalized to absence of peptide (100%)",VUP melanoma cell line [1],44.16%±1.71%
same,"adhesion of [51Cr]-A375M cells to laminin, normalized to absence of peptide (100%)",A375M melanoma cell line [2],50.40%±1.24%
same,"adhesion of [51Cr]-VUP cells to laminin, normalized to absence of peptide (100%)",VUP melanoma cell line [3],46.89%±1.45%
same,"adhesion of [51Cr]-A375M cells to vitronectin, normalized to absence of peptide (100%)",A375M melanoma cell line [4],72.79%±0.04%
